{"source": "paper PMC4097363", "about": "“Trace amines inhibit insect odorant receptor function through antagonism of the co-receptor subunit” (F1000Research, 2014)", "key": {"Cqui\\Orco": {"molecular_target": "Cqui\\Orco (Culex quinquefasciatus, UniProt Q309I4)", "sequence (Q309I4 entry or part of it)": "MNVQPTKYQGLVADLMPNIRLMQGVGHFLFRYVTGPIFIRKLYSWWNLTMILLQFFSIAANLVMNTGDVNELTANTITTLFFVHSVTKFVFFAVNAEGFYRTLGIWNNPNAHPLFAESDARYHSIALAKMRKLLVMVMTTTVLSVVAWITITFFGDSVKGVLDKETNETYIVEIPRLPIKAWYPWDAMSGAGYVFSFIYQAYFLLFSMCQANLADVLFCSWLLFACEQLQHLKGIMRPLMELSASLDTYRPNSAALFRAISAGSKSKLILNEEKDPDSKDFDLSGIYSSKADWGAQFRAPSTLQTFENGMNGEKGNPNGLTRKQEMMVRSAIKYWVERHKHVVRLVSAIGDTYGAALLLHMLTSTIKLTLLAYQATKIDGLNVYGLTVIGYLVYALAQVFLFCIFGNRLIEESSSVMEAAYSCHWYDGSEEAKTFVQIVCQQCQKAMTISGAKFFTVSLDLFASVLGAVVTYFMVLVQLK", "experiment": "Antagonism of OLC12 activation of Orco in Xenopus oocytes", "type": "cell-based", "conditions": "for inhibition at 100 µM: Cqui\\Orco activated by 30µM OLC12 (~EC5), 100µM of each amine, mean ± SEM, n = 3-10, read-out: inhibition of the OLC12 response; for IC50: read-out: IC 50 for inhibition of Cqui\\Orco activation", "method": "(§1) Follicle cells were removed by treatment with collagenase B (Boehringer Mannheim) for 2 hours at room temperature. Capped cRNA encoding each OR subunit was generated using mMessage mMachine kits (Ambion). For heteromeric ORs, 25 ng of cRNA encoding each OR subunit was injected into Stage V-VI Xenopus oocytes. For expression of Orco homomers, 50 ng of cRNA was injected. Oocytes were incubated at 18°C in Barth's saline (in mM: 88 NaCl, 1 KCl, 2.4 NaHCO 3, 0.3 CaNO 3, 0.41 CaCl 2, 0.82 MgSO 4, 15 HEPES, pH 7.6, and 150µg/ml ceftazidime) for 2–5 days prior to electrophysiological recording.\n(§2) Odorant and Orco ligand induced currents were recorded under two-electrode voltage clamp, using an automated parallel electrophysiology system (OpusExpress 6000A, Molecular Devices). Oocytes were perfused with ND96 (in mM: 96 NaCl, 2 KCl, 1 CaCl 2, 1 MgCl 2, 5 HEPES, pH 7.5). Orco ligands were prepared as 50 or 100 mM stock solutions in DMSO and then diluted into ND96 on the day of the experiment. Odorants were prepared as 100 mM stock solutions in DMSO and then diluted into ND96. Unless otherwise noted, applications were for 60 sec at a flow rate of 1.0 ml/min, with extensive washing in ND96 at 4.6 ml/min between applications. Micropipettes were filled with 3 M KCl and had resistances of 0.2–2.0 MΩ. The holding potential was -70 mV. Current responses, filtered (4-pole, Bessel, low pass) at 20 Hz (-3 db) and sampled at 100 Hz, were captured and stored using OpusXpress 1.1 software (Molecular Devices).\nTo screen for agonist activity, oocytes were exposed to 30 sec applications of candidate compounds with 5 min washes between applications ( Figure 2A). For the concentration-response protocol ( Table 1), applications were for 20 sec at a flow rate of 1.65 ml/min. To measure antagonist activity at Orco ( Figure 2B, 2C, Figure 3, Figure 4A and Figure 5A), oocytes were exposed to two 60 sec applications of the synthetic Orco agonist OLC12 (2-((4-Ethyl-5-(4-pyridinyl)-4H-1,2,4-triazol-3-yl)sulfanyl)-N-(4-isopropylphenyl)acetamide) with 4 min washes between applications. Oocytes were then exposed to a 90 sec application of antagonist candidate, immediately followed by a 60 sec co-application of antagonist candidate and OLC12. The current response in the presence of antagonist candidate was compared to the mean of the preceding two responses to OLC12 alone and is presented as a percentage.\nInitial analysis of electrophysiological data was done using Clampfit 9.1 software (Molecular Devices). Curve fitting and statistical analyses were done using Prism 5 (Graphpad). Concentration-inhibition data were fit to the equation: I = I max/(1+ (X/IC 50) ^n) where I represents the current response at a given concentration of inhibitor, X; I max is the maximal response in the absence of inhibitor; IC 50 is the concentration of inhibitor present that still allows a half maximal response from odorant; n is the apparent Hill coefficient. Concentration-response data were fit to the equation: I = I max/(1+(EC 50/X) ^n) where I represents the current response at a given concentration of odorant, X; I max is the maximal response; EC 50 is the concentration of agonist yielding a half maximal response; n is the apparent Hill coefficient. Statistical significance (p<0.05) was assessed using a two-tailed unpaired t test, an F test, or a one-way analysis of variance followed by the Dunnett's post-test, as appropriate."}, "Mcar\\Orco+Mcar\\Or5": {"test_system": "Mcar\\Orco+Mcar\\Or5", "experiment": "Inhibition of odorant activation of heteromeric OR in Xenopus oocytes", "type": "cell-based, Megacyllene caryae", "conditions": "activated by 150µM 2-phenylethanol; 10µM tryptamine or 100µM tyramine", "method": "as §1\nas §2, with “Current responses, filtered (4-pole, Bessel, low pass) at 20 Hz (-3 db) and sampled at 100 Hz, were captured and stored using OpusXpress 1.1 software (Molecular Devices).” left out"}, "Agam\\Orco+Agam\\Or27": {"test_system": "Agam\\Orco+Agam\\Or27", "experiment": "Inhibition of odorant activation of heteromeric OR in Xenopus oocytes", "type": "cell-based, Anopheles gambiae", "conditions": "activated by 3µM L-fenchone; 10µM tryptamine or 100µM tyramine", "method": "as §1, §2\n(§3) To measure inhibition of odorant activation of heteromeric ORs ( Figures 4B, 4C, Figure 5B and Figure 6), oocytes were exposed to a 30 sec application of odorant followed by a 10 min wash. Oocytes were then exposed to a 90 sec application of tryptamine or tyramine, immediately followed by a 30 sec co-application of tryptamine or tyramine and odorant. The current response in the presence of antagonist candidate was compared to the preceding response to odorant alone and expressed as a percentage. […] For this reason, we then re-normalized antagonism data to the value obtained when the assay was run in the absence of antagonist candidate (sham). In the “sham” assay, oocytes were exposed to a 30 sec application of odorant followed by a 10 min wash and then exposed to a 90 sec application of ND96 (no antagonist candidate), immediately followed by a 30 sec application of odorant. The second odorant response was compared to the first response and expressed as a percentage. In Figure 4B, 4C, Figure 5B and Figure 6, the sham value for 100nM eugenol was 57 ± 3% (mean ± SEM, n = 3). In Figure 5B, the sham value for 10nM eugenol was 93 ± 4% (n = 4). In Figure 4B and C, the sham value for 1µM Z11-14:OAc was 82 ± 6% (n = 6) and the sham value for 150µM 2-phenylethanol was 92 ± 2% (n = 3). In Figure 6, the sham value for 3µM L-fenchone was 83 ± 1% (n = 3), the sham value for 40µM acetophenone was 92 ± 1% (n = 3), the sham value for 70µM geranyl acetate was 97 ± 1% (n = 3), the sham value for 10µM 6-methyl-5-hepten-2-one was 94 ± 2% (n = 3) and the sham value for 3µM 2-nonanone was 81 ± 1% (n = 3)."}, "Agam\\Orco+Agam\\Or31": {"test_system": "Agam\\Orco+Agam\\Or31", "experiment": "Inhibition of odorant activation of heteromeric OR in Xenopus oocytes", "type": "cell-based, Anopheles gambiae", "conditions": "activated by 70µM geranyl acetate; 10µM tryptamine or 100µM tyramine", "method": "as §1, §2, §3"}, "Agam\\Orco+Agam\\Or39": {"test_system": "Agam\\Orco+Agam\\Or39", "experiment": "Inhibition of odorant activation of heteromeric OR in Xenopus oocytes", "type": "cell-based, Anopheles gambiae", "conditions": "activated by 10µM 6-methyl-5-hepten-2-one; 10µM tryptamine or 100µM tyramine", "method": "as §1, §2, §3"}, "Agam\\Orco+Agam\\Or28": {"test_system": "Agam\\Orco+Agam\\Or28", "experiment": "Inhibition of odorant activation of heteromeric OR in Xenopus oocytes", "type": "cell-based, Anopheles gambiae", "conditions": "activated by 40µM acetophenone; 10µM tryptamine or 100µM tyramine", "method": "as §1, §2, §3"}}, "note": "Like-named read-outs stand apart in the source and are kept apart here.", "data": [{"compound": "NCCc1c[nH]c2ccccc12", "note": "[tryptamine]", "values": [{"measurement": "inhibition at 100 µM", "setting": "Cqui\\Orco", "value": "92 ± 2", "unit": "%"}, {"measurement": "inhibition of OLC12 activation of Orco", "setting": "Cqui\\Orco; Cqui\\Orco, 30µM OLC12, 10µM tryptamine", "value": "inhibited OLC12 activation of Orco from each of these three insect species"}, {"measurement": "mechanism of antagonism of Cqui\\Orco", "setting": "Cqui\\Orco; OLC12 increased from 30µM to 100µM", "value": "competitive antagonist"}, {"measurement": "IC50", "setting": "Cqui\\Orco; activated by 30µM OLC12", "value": "4.7 ± 0.7", "unit": "µM"}, {"measurement": "IC50", "setting": "Cqui\\Orco; activated by 100µM OLC12", "value": "143 ± 18", "unit": "µM"}, {"measurement": "inhibition of odorant activation of the OR", "setting": "Mcar\\Orco+Mcar\\Or5", "value": "substantial inhibition of each receptor"}, {"measurement": "inhibition of odorant activation of the OR", "setting": "Agam\\Orco+Agam\\Or27", "value": "able to inhibit odorant activation of the receptor"}, {"measurement": "inhibition of odorant activation of the OR", "setting": "Agam\\Orco+Agam\\Or31", "value": "able to inhibit odorant activation of the receptor"}, {"measurement": "inhibition of odorant activation of the OR", "setting": "Agam\\Orco+Agam\\Or39", "value": "able to inhibit odorant activation of the receptor"}, {"measurement": "inhibition of odorant activation of the OR", "setting": "Agam\\Orco+Agam\\Or28", "value": "able to inhibit odorant activation of the receptor"}]}, {"compound": "NCCc1ccc(O)cc1", "note": "[tyramine]", "values": [{"measurement": "less potent than tryptamine (IC50 ratio)", "setting": "Cqui\\Orco; Cqui\\Orco activated by 30µM OLC12", "value": 33, "unit": "fold"}, {"measurement": "inhibition at 100 µM", "setting": "Cqui\\Orco", "value": "40 ± 5", "unit": "%"}, {"measurement": "IC50", "setting": "Cqui\\Orco; activated by 30µM OLC12", "value": "157 ± 22", "unit": "µM"}, {"measurement": "inhibition of odorant activation of the OR", "setting": "Mcar\\Orco+Mcar\\Or5", "value": "able to reduce odorant activation of these ORs, but was less effective than tryptamine"}, {"measurement": "inhibition of odorant activation of the OR", "setting": "Agam\\Orco+Agam\\Or27", "value": "able to inhibit odorant activation of each of these receptors, but was less effective than tryptamine"}, {"measurement": "inhibition of odorant activation of the OR", "setting": "Agam\\Orco+Agam\\Or31", "value": "able to inhibit odorant activation of each of these receptors, but was less effective than tryptamine"}, {"measurement": "inhibition of odorant activation of the OR", "setting": "Agam\\Orco+Agam\\Or39", "value": "able to inhibit odorant activation of each of these receptors, but was less effective than tryptamine"}, {"measurement": "inhibition of odorant activation of the OR", "setting": "Agam\\Orco+Agam\\Or28", "value": "able to inhibit odorant activation of each of these receptors, but was less effective than tryptamine"}]}]}
